As usually defined, the IC50 is the concentration at which inhibition is half-maximal. Usually viability, T/C stands for the ratio of treated to control.

For this experiment, the system named is LG0567-F671-PDC KRAS tumor spheroid viability. The experiment in a line: Anticancer human tumor LG0567-F671-PDC patient-derived lung adenocarcinoma cell line growth inhibition [KRAS2]. To be noted: spheroids with HUVEC and MSC; for viability, T/C: stronger effect = lower value. In outline:
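KRAS-mutant tumor cells were grown as spheroids with HUVEC endothelial cells and human MSCs as stroma. Targeted agents were tested alone and with KRAS pathway inhibitors. Doses started at or near clinical Cmax, or 10 microM, descending half-log.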

[1] abbreviates: curve of first compound, second compound 0.1 µM.
[2] abbreviates: curve of first compound, second compound 0.316 µM.
[3] abbreviates: curve of first compound, second compound 1 µM.
Setting [4] is: curve of first compound, second compound 3.16 µM.
The mark [5] stands for this setting: curve of first compound, second compound 10 µM.
Where [6] appears, read: second compound 0.1 µM, first compound 0.0316 µM.
[7] abbreviates: second compound 0.1 µM, first compound 0.1 µM.
[8] abbreviates: second compound 0.1 µM, first compound 0.316 µM.
The mark [9] stands for this setting: second compound 0.1 µM, first compound 1 µM.
[10] abbreviates: second compound 0.316 µM, first compound 0.0316 µM.
Setting [11] is: second compound 0.316 µM, first compound 0.1 µM.
The mark [12] stands for this setting: second compound 0.316 µM, first compound 0.316 µM.
[13] abbreviates: second compound 0.316 µM, first compound 1 µM.
The mark [14] stands for this setting: second compound 1 µM, first compound 0.0316 µM.
[15] abbreviates: second compound 1 µM, first compound 0.1 µM.
Setting [16] is: second compound 1 µM, first compound 0.316 µM.
Setting [17] is: second compound 1 µM, first compound 1 µM.
Setting [18] is: second compound 3.16 µM, first compound 0.0316 µM.
The mark [19] stands for this setting: second compound 3.16 µM, first compound 0.1 µM.
The mark [20] stands for this setting: second compound 3.16 µM, first compound 0.316 µM.
Where [21] appears, read: second compound 3.16 µM, first compound 1 µM.
The mark [22] stands for this setting: second compound 10 µM, first compound 0.0316 µM.
Where [23] appears, read: second compound 10 µM, first compound 0.1 µM.
Setting [24] is: second compound 10 µM, first compound 0.316 µM.
The mark [25] stands for this setting: second compound 10 µM, first compound 1 µM.
Where [26] appears, read: second compound 0.1 µM, first compound 0.00316 µM.
Setting [27] is: second compound 0.1 µM, first compound 0.01 µM.
Setting [28] is: second compound 0.316 µM, first compound 0.00316 µM.
[29] abbreviates: second compound 0.316 µM, first compound 0.01 µM.
Where [30] appears, read: second compound 1 µM, first compound 0.00316 µM.
The mark [31] stands for this setting: second compound 1 µM, first compound 0.01 µM.
Setting [32] is: second compound 3.16 µM, first compound 0.00316 µM.
Setting [33] is: second compound 3.16 µM, first compound 0.01 µM.
[34] abbreviates: second compound 10 µM, first compound 0.00316 µM.
Setting [35] is: second compound 10 µM, first compound 0.01 µM.
The mark [36] stands for this setting: compound alone, run of 07/19/2021.
Setting [37] is: compound alone, run of 07/26/2021.

Several values for one entry are separate records, joined by “and”; a condition that tells them apart may be missing. Equal values may be shown once.
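Further: drug exposure lasted seven days after spheroids formed for three days.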
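Wherever viability, T/C is given: 100% = DMSO vehicle control viability.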

For `Cn1nccc1Nc1nccc(-c2cc3c(s2)C(C)(C)N(CCN2CCOCC2)C3=O)n1` + C=CC(=O)N1CCN(c2nc(=O)n(-c3c(C)ccnc3C(C)C)c3nc(-c4c(O)cccc4F)c(F)cc23)C(C)C1, the concentration for half-maximal inhibition (IC50) is less than 31.6 nM under setting [1]; less than 31.6 nM under setting [2]; less than 31.6 nM under setting [3]; less than 31.6 nM under setting [4]; less than 31.6 nM under setting [5]. The viability, T/C is, setting by setting: under setting [6], 21.2%; under setting [7], 23.1%; under setting [8], 19.2%; under setting [9], 20.8%; (second compound 0.1 µM, first compound 3.16 µM) 14.1%; (second compound 0.1 µM, first compound 10 µM) 16.3%. In addition, the viability, T/C reads like this: under setting [10], 22.2%; under setting [11], 19.8%; under setting [12], 19.9%; under setting [13], 17.8%; (second compound 0.316 µM, first compound 3.16 µM) 15.6%; (second compound 0.316 µM, first compound 10 µM) 17.2%. Moreover, the viability, T/C is 23.1% under setting [14]; 21.8% under setting [15]; 21% under setting [16]; 20.9% under setting [17]; 15% (second compound 1 µM, first compound 3.16 µM); 20.8% (second compound 1 µM, first compound 10 µM). Also, the viability, T/C is 22.2% under setting [18]; 18.1% under setting [19]; 20.3% under setting [20]; 12.2% under setting [21]; 14% (second compound 3.16 µM, first compound 3.16 µM); 20.9% (second compound 3.16 µM, first compound 10 µM). Besides, the viability, T/C was 20.5% under setting [22]; 19.2% under setting [23]; 14.5% under setting [24]; 12.2% under setting [25]; 15.2% (second compound 10 µM, first compound 3.16 µM); 26.8% (second compound 10 µM, first compound 10 µM).

Take `CCN1CCN(Cc2ccc(Nc3ncc(F)c(-c4cc(F)c5nc(C)n(C(C)C)c5c4)n3)nc2)CC1` + CC1OCC2(CCN(c3cnc(Sc4ccnc(N)c4Cl)c(N)n3)CC2)C1N: the IC50 is 6.46 nM under setting [1]; less than 3.16 nM under setting [2]; less than 3.16 nM under setting [3]; less than 3.16 nM under setting [4]; less than 3.16 nM under setting [5]. Moreover, the viability, T/C was 54.8% under setting [26]; 48.2% under setting [27]; 41.1% under setting [6]; 41.2% under setting [7]; 39.9% under setting [8]; 39.1% under setting [9]. The viability, T/C runs as follows: under setting [28], 35.5%; under setting [29], 30.2%; under setting [10], 27.7%; under setting [11], 25.5%; under setting [12], 23%; under setting [13], 24.2%. Also, the viability, T/C by setting is: under setting [30], 26%; under setting [31], 23.1%; under setting [14], 20.7%; under setting [15], 17.7%; under setting [16], 16.5%; under setting [17], 20.5%. In addition, the viability, T/C reads like this: under setting [32], 15.2%; under setting [33], 16.7%; under setting [18], 16.1%; under setting [19], 10.6%; under setting [20], 10.9%; under setting [21], 14.9%. The viability, T/C under setting [34] is 10.4%; the viability, T/C under setting [35] is 7.73%; the viability, T/C under setting [22] was 6.15%; the viability, T/C under setting [23] was 6.13%; the viability, T/C under setting [24] was 7.13%; the viability, T/C under setting [25] is 15.3%.

As for `CNCc1ccccc1-c1csc(C(C)Nc2nc(C)nc3cc(OC)c(OC)cc23)c1` (stereo unspecified), the viability, T/C (compound 10 µM) was 0.63% [middle of 16 runs]. Also, the IC50 is 1.25 µM [middle of 5 runs] under setting [36] and 4.92 µM [middle of 6 runs] under setting [37].

On to `CC1OCC2(CCN(c3cnc(Sc4ccnc(N)c4Cl)c(N)n3)CC2)C1N` (stereo unspecified), for which the viability, T/C by setting is: (compound 0.0316 µM) 81.9% and 81.1% and 73.7%; (compound 0.1 µM) 56.3% [middle of 20 runs]; (compound 0.316 µM) 38.5% [middle of 20 runs]; (compound 3.16 µM) 21.6% [middle of 20 runs]; (compound 10 µM) 15.5% [middle of 19 runs]. Also, the half-inhibitory concentration (IC50) reads like this: under setting [37], 134 nM [middle of 6 runs]; (curve of compound) 163 nM [middle of 5 runs].

Turning to `CCN1CCN(Cc2ccc(Nc3ncc(F)c(-c4cc(F)c5nc(C)n(C(C)C)c5c4)n3)nc2)CC1` + CNCc1ccccc1-c1csc(C(C)Nc2nc(C)nc3cc(OC)c(OC)cc23)c1, the half-inhibitory concentration (IC50) by setting is: under setting [1], 493 nM; under setting [2], 68.2 nM; under setting [3], 6.43 nM; under setting [4], 13.7 nM; under setting [5], less than 3.16 nM. The viability, T/C reads like this: under setting [26], 78%; under setting [27], 76.3%; under setting [6], 65%; under setting [7], 62.6%; under setting [8], 50.1%; under setting [9], 47.3%. The viability, T/C runs as follows: under setting [28], 77.2%; under setting [29], 60.5%; under setting [10], 51.1%; under setting [11], 54.8%; under setting [12], 43.8%; under setting [13], 42%. Moreover, the viability, T/C by setting is: under setting [30], 52%; under setting [31], 50.5%; under setting [14], 44.3%; under setting [15], 37.8%; under setting [16], 39.9%; under setting [17], 33.9%. Moreover, the viability, T/C was 60.6% under setting [32]; 74.2% under setting [33]; 0.63% under setting [18]; 11.6% under setting [19]; 3.01% under setting [20]; 0.17% under setting [21]. In addition, the viability, T/C by setting is: under setting [34], 0.18%; under setting [35], 0.15%; under setting [22], 0.13%; under setting [23], 0.12%; under setting [24], 0.13%; under setting [25], 0.18%.

For `C=CC(=O)N1CCN(c2nc(OCC3CCCN3C)nc3c2CCN(c2cccc4cccc(C)c24)C3)CC1CC#N` (stereo unspecified), the viability, T/C is, setting by setting: (compound 0.0316 µM) 35.5% [middle of 17 runs]; (compound 0.1 µM) 31.3% [middle of 16 runs]; (compound 1 µM) 30.4% [middle of 17 runs]. The IC50 (compound alone, run of 07/12/2021) was less than 31.6 nM; the concentration for half-maximal inhibition (IC50) under setting [36] is less than 31.6 nM; the IC50 under setting [37] was less than 31.6 nM.

These data come from PubChem BioAssay AID1963856 (Molecular Pharmacology Branch, DTP, NCI, 2024).
